Test results reported in PubChem BioAssay AID2060890 (Molecular Pharmacology Branch, DTP, NCI, 2025).

System: LG0703-F948-PDC complex spheroid viability
Test: Anticancer human tumor LG0703-F948-PDC patient-derived lung adenocarcinoma cell line growth inhibition [RAS]
Conditions: for IC50: curve of first compound; for viability, T/C: stronger effect = lower value
Source text: RAS pathway inhibitors in Combinations in Complex Spheroids
A high-throughput screen of multi-cell type tumor spheroids was designed to identify active combinations of RAS pathway inhibitors and targeted small molecules. Complex spheroids include a stromal component modeled by human endothelial cells (HUVEC) and fibroblasts modeled by human mesenchymal stem cells (MSCs). The concentration ranges selected for each drug and investigational agent were based upon clinically achievable concentrations if the clinical Cmax of the agent was known.
Compounds. The drugs and investigational agents: abemaciclib (NSC768073), cobimetinib (NSC768068), divarasib (GDC6063, NSC841802), docetaxel (NSC628503), GDC-1971 (RLY-1971, NSC841576), gemcitabine (NSC613327), inavolisib (NSC800729), ipatasertib (NSC767898), KB-0742 (NSC834161), MRTX-1133 (NSC836407), osimertinib (NSC779217), RMC-4630 (NSC839698), RMC-6236 (NSC851965), RMC-6291 (NSC852671), Ro-3306 (NSC812927), sapanisertib (NSC764658), SN-38 (NSC673596), staurosporine (NSC755774), SY5609 (NSC837396), and tovorafenib (DAY101, NSC766906), were obtained from the National Cancer Institute (NCI) Developmental Therapeutics Program Chemical Repository. The FDA-approved anticancer drug set is available from the NCI Developmental Therapeutics Program. […] The stock solutions were prepared in dimethyl sulfoxide (DMSO, Sigma-Aldrich, St. Louis, MO, cat. D2650) at 800-fold the tested concentration and stored at -70 degrees C prior to their use. All drugs and investigational agents were tested over a range starting from a high concentration at or near the clinical Cmax and decreasing in half-log increments. If the clinical Cmax for an agent had not been determined, the highest concentration tested was 10 microM.
Cell Culture. All cells were maintained in an incubator at 37 degrees C and 5% CO2 with 95% humidity. The PDC lines were cultured according to standard operating procedures established by the NCI PDMR. All PDCs were thawed and cultured in Matrigel-coated flasks prepared with a working solution of 1X Ham's F-12 nutrient mix, without supplementation (Invitrogen, Waltham, MA, cat. 11765054), 100 U/mL penicillin-streptomycin (Invitrogen, cat. 15140122), and 2.5% Matrigel (Corning Inc., Corning, NY, cat. 354248) for the first three passages. The 362531-283-R-J2-PDC and 782815-120-R-J1-PDC lines were cultured in 6C/Colon 1B media, which includes advanced DMEM/F-12 (Thermo Fisher Scientific, cat. 12634028), 10 mM HEPES (Thermo Fisher Scientific, cat. 15630080), 1X GlutaMAX supplement (Thermo Fisher Scientific, cat. 35050061), 0.1 mg/mL primocin (InvivoGen, San Diego, CA, cat. ant-pm-2), 10% defined fetal bovine serum, heat inactivated (HyClone Laboratories Inc., Logan, UT, cat. SH30070.03HI), 50% L-WRN conditioned media (ATCC, cat. CRL-3276), 1.25 mM N-Acetyl-L-cysteine (Sigma-Aldrich, cat. A9165), 10 mM nicotinamide (Sigma-Aldrich, cat. N0636), 1X B-27 supplement (Thermo Fisher Scientific, cat. 17504044), 1X N-2 supplement (Thermo Fisher Scientific, cat. 17502048), 50 ng/mL human EGF (Thermo Fisher Scientific, cat. PHG0311), and 10 microM Y-27632 dihydrochloride (Tocris Bioscience, cat. 1254). The K12877-001-R-J1-PDC line was cultured in 6I media, which includes all 6C/Colon 1B media plus 10 ng/mL human FGF-10 (PeproTech, cat. 100-26), 1 ng/mL human FGF-2 (PeproTech, cat. 100-18B), 1 µM prostaglandin E2 (Tocris Bioscience, cat. 2296), […] hydrocortisone (Sigma-Aldrich, cat. H4001), and […] bovine insulin (Sigma-Aldrich, cat. I6634). The K86415-001-R-J1-PDC line was cultured in 6D media, which includes all 6C/Colon 1B media components minus the L-WRN conditioned media. The 485176-168-R4-J1-PDC was cultured in PANC media, which includes all 6C/Colon 1B media plus 100 ng/mL human FGF-10 (PeproTech, cat. 100-26), 500 nM SB-431542 (Selleckchem, cat. S1067), and 10 nM gastrin (Tocris Bioscience, cat. 3006). […]
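Further: spheroids exposed to agents for 7 days.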
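Wherever viability, T/C is given: 100% = DMSO vehicle wells.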

Q: Which results are given for `CC(C)n1nc(-c2ccc3oc(N)nc3c2)c2c(N)ncnc21` + CCn1c(-c2cc(N3CCN(C)CC3)cnc2C(C)OC)c2c3cc(ccc31)-c1csc(n1)CC(NC(=O)C1CC1C)C(=O)N1CCCC(N1)C(=O)OCC(C)(C)C2?
A: IC50 (second compound 0.000949 µM): 1.53 nM; IC50 (second compound 0.003 µM): 0.429 nM; IC50 (second compound 0.00949 µM): < 0.316 nM; IC50 (second compound 0.03 µM): < 0.316 nM; IC50 (second compound 0.0949 µM): < 0.316 nM; IC50 (second compound 0.3 µM): < 0.316 nM; viability, T/C (second compound 0.000949 µM, first compound 0.000316 µM): 66.8%; viability, T/C (second compound 0.000949 µM, first compound 0.001 µM): 56.5%; viability, T/C (second compound 0.000949 µM, first compound 0.00316 µM): 38.5%; viability, T/C (second compound 0.000949 µM, first compound 0.01 µM): 30.5%; viability, T/C (second compound 0.000949 µM, first compound 0.0316 µM): 12.7%; viability, T/C (second compound 0.000949 µM, first compound 0.1 µM): 5.51%; viability, T/C (second compound 0.003 µM, first compound 0.000316 µM): 55.5%; viability, T/C (second compound 0.003 µM, first compound 0.001 µM): 34.8%; viability, T/C (second compound 0.003 µM, first compound 0.00316 µM): 29.7%; viability, T/C (second compound 0.003 µM, first compound 0.01 µM): 13.1%; viability, T/C (second compound 0.003 µM, first compound 0.0316 µM): 8.23%; viability, T/C (second compound 0.003 µM, first compound 0.1 µM): 3.1%; viability, T/C (second compound 0.00949 µM, first compound 0.000316 µM): 31.1%; viability, T/C (second compound 0.00949 µM, first compound 0.001 µM): 20.7%; viability, T/C (second compound 0.00949 µM, first compound 0.00316 µM): 12.6%; viability, T/C (second compound 0.00949 µM, first compound 0.01 µM): 6.99%; viability, T/C (second compound 0.00949 µM, first compound 0.0316 µM): 4.36%; viability, T/C (second compound 0.00949 µM, first compound 0.1 µM): 2.06%; viability, T/C (second compound 0.03 µM, first compound 0.000316 µM): 12.7%; viability, T/C (second compound 0.03 µM, first compound 0.001 µM): 13.1%; viability, T/C (second compound 0.03 µM, first compound 0.00316 µM): 6.11%; viability, T/C (second compound 0.03 µM, first compound 0.01 µM): 5.4%; viability, T/C (second compound 0.03 µM, first compound 0.0316 µM): 2.59%; viability, T/C (second compound 0.03 µM, first compound 0.1 µM): 1.58%; viability, T/C (second compound 0.0949 µM, first compound 0.000316 µM): 12.9%; viability, T/C (second compound 0.0949 µM, first compound 0.001 µM): 8.35%; viability, T/C (second compound 0.0949 µM, first compound 0.00316 µM): 6.05%; viability, T/C (second compound 0.0949 µM, first compound 0.01 µM): 3.05%; viability, T/C (second compound 0.0949 µM, first compound 0.0316 µM): 1.82%; viability, T/C (second compound 0.0949 µM, first compound 0.1 µM): 1.05%; viability, T/C (second compound 0.3 µM, first compound 0.000316 µM): 10.7%; viability, T/C (second compound 0.3 µM, first compound 0.001 µM): 7.72%; viability, T/C (second compound 0.3 µM, first compound 0.00316 µM): 4.76%; viability, T/C (second compound 0.3 µM, first compound 0.01 µM): 3.02%; viability, T/C (second compound 0.3 µM, first compound 0.0316 µM): 1.64%; viability, T/C (second compound 0.3 µM, first compound 0.1 µM): 0.76%
